In PubChem BioAssay AID2060901 (Molecular Pharmacology Branch, DTP, NCI, 2025):
pIC50: −log10 of the molar value. Where “and” joins values, the source holds several entries; their conditions need not be identical. Identical values can stand only once.

Test system: 422866-222-R5-J1-PDC complex spheroids viability
Assay: Anticancer human tumor 422866-222-R5-J1-PDC patient-derived pancreatic adenocarcinoma cell line growth inhibition [RAS]
Conditions: for pIC50: curve of first compound; for viability, T/C: stronger effect = lower value
In short: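 Multi-cell-type spheroids: tumor cells plus HUVEC endothelial cells and mesenchymal stem cells. RAS-pathway inhibitors were combined with targeted agents, each dosed in half-log steps down from clinical Cmax, or from 10 microM when Cmax was unknown.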

[1] = second compound 0.000949 µM, first compound 0.0316 µM
[2] = second compound 0.000949 µM, first compound 0.1 µM
[3] = second compound 0.000949 µM, first compound 0.316 µM
[4] = second compound 0.000949 µM, first compound 1 µM
[5] = second compound 0.003 µM, first compound 0.0316 µM
[6] = second compound 0.003 µM, first compound 0.1 µM
[7] = second compound 0.003 µM, first compound 0.316 µM
[8] = second compound 0.003 µM, first compound 1 µM
[9] = second compound 0.00949 µM, first compound 0.0316 µM
[10] = second compound 0.00949 µM, first compound 0.1 µM
[11] = second compound 0.00949 µM, first compound 0.316 µM
[12] = second compound 0.00949 µM, first compound 1 µM
[13] = second compound 0.03 µM, first compound 0.0316 µM
[14] = second compound 0.03 µM, first compound 0.1 µM
[15] = second compound 0.03 µM, first compound 0.316 µM
[16] = second compound 0.03 µM, first compound 1 µM
[17] = second compound 0.0949 µM, first compound 0.0316 µM
[18] = second compound 0.0949 µM, first compound 0.1 µM
[19] = second compound 0.0949 µM, first compound 0.316 µM
[20] = second compound 0.0949 µM, first compound 1 µM
[21] = second compound 0.3 µM, first compound 0.0316 µM
[22] = second compound 0.3 µM, first compound 0.1 µM
[23] = second compound 0.3 µM, first compound 0.316 µM
[24] = second compound 0.3 µM, first compound 1 µM
[25] = second compound 0.000949 µM, first compound 3.16 µM
[26] = second compound 0.000949 µM, first compound 10 µM
[27] = second compound 0.003 µM, first compound 3.16 µM
[28] = second compound 0.003 µM, first compound 10 µM
[29] = second compound 0.00949 µM, first compound 3.16 µM
[30] = second compound 0.00949 µM, first compound 10 µM
[31] = second compound 0.03 µM, first compound 3.16 µM
[32] = second compound 0.03 µM, first compound 10 µM
[33] = second compound 0.0949 µM, first compound 3.16 µM
[34] = second compound 0.0949 µM, first compound 10 µM
[35] = second compound 0.3 µM, first compound 3.16 µM
[36] = second compound 0.3 µM, first compound 10 µM
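Also: spheroids exposed to compounds for 7 days.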
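For viability, T/C in this document: 100% = DMSO vehicle control viability.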

Nc1ccn(C2OC(CO)C(O)C2(F)F)c(=O)n1 (centres undefined) + CCn1c(-c2cccnc2C(C)OC)c2c3cc(ccc31)N1CCOC(CC(NC(=O)C(C(C)C)N(C)C(=O)C3(F)CCN(C(=O)C#CC(C)(C)N(C)C)CC3)C(=O)N3CCCC(N3)C(=O)OCC(C)(C)C2)C1
pIC50 (second compound 0.000949 µM): > 8.50
pIC50 (second compound 0.003 µM): > 8.50
pIC50 (second compound 0.00949 µM): > 8.50
pIC50 (second compound 0.03 µM): > 8.50
pIC50 (second compound 0.0949 µM): > 8.50
pIC50 (second compound 0.3 µM): > 8.50
viability, T/C (second compound 0.000949 µM, first compound 0.00316 µM): 25.9%
viability, T/C (second compound 0.000949 µM, first compound 0.01 µM): 23.6%
viability, T/C [1]: 25.8%
viability, T/C [2]: 23.4%
viability, T/C [3]: 23.1%
viability, T/C [4]: 18.5%
viability, T/C (second compound 0.003 µM, first compound 0.00316 µM): 22.8%
viability, T/C (second compound 0.003 µM, first compound 0.01 µM): 20.6%
viability, T/C [5]: 20.3%
viability, T/C [6]: 17.5%
viability, T/C [7]: 16.3%
viability, T/C [8]: 13.8%
viability, T/C (second compound 0.00949 µM, first compound 0.00316 µM): 22.7%
viability, T/C (second compound 0.00949 µM, first compound 0.01 µM): 20.1%
viability, T/C [9]: 17.9%
viability, T/C [10]: 15.7%
viability, T/C [11]: 15.6%
viability, T/C [12]: 15.2%
viability, T/C (second compound 0.03 µM, first compound 0.00316 µM): 18.8%
viability, T/C (second compound 0.03 µM, first compound 0.01 µM): 22.6%
viability, T/C [13]: 17.1%
viability, T/C [14]: 13.3%
viability, T/C [15]: 14.6%
viability, T/C [16]: 16.9%
viability, T/C (second compound 0.0949 µM, first compound 0.00316 µM): 17.2%
viability, T/C (second compound 0.0949 µM, first compound 0.01 µM): 17.9%
viability, T/C [17]: 15.9%
viability, T/C [18]: 13.1%
viability, T/C [19]: 13.3%
viability, T/C [20]: 12.9%
viability, T/C (second compound 0.3 µM, first compound 0.00316 µM): 14.2%
viability, T/C (second compound 0.3 µM, first compound 0.01 µM): 17.2%
viability, T/C [21]: 14.3%
viability, T/C [22]: 12.4%
viability, T/C [23]: 12.5%
viability, T/C [24]: 11.4%

NC1c2ccccc2OC12CCN(c1cnc3c(N4CCCc5ncccc54)n[nH]c3n1)CC2 (centres undefined) + CCn1c(-c2cccnc2C(C)OC)c2c3cc(ccc31)N1CCOC(CC(NC(=O)C(C(C)C)N(C)C(=O)C3(F)CCN(C(=O)C#CC(C)(C)N(C)C)CC3)C(=O)N3CCCC(N3)C(=O)OCC(C)(C)C2)C1
pIC50 (second compound 0.000949 µM): > 7.50
pIC50 (second compound 0.003 µM): > 7.50
pIC50 (second compound 0.00949 µM): > 7.50
pIC50 (second compound 0.03 µM): > 7.50
pIC50 (second compound 0.0949 µM): > 7.50
pIC50 (second compound 0.3 µM): > 7.50
viability, T/C [1]: 20.1%
viability, T/C [2]: 18.2%
viability, T/C [3]: 14.9%
viability, T/C [4]: 16.1%
viability, T/C [25]: 18.1%
viability, T/C [26]: 15.7%
viability, T/C [5]: 16%
viability, T/C [6]: 12.6%
viability, T/C [7]: 14.4%
viability, T/C [8]: 14.4%
viability, T/C [27]: 13.5%
viability, T/C [28]: 15.1%
viability, T/C [9]: 17.7%
viability, T/C [10]: 14.1%
viability, T/C [11]: 13.7%
viability, T/C [12]: 14.3%
viability, T/C [29]: 13.8%
viability, T/C [30]: 15.8%
viability, T/C [13]: 15.8%
viability, T/C [14]: 12.8%
viability, T/C [15]: 14.3%
viability, T/C [16]: 12.9%
viability, T/C [31]: 12.9%
viability, T/C [32]: 13.6%
viability, T/C [17]: 12.8%
viability, T/C [18]: 13.3%
viability, T/C [19]: 13.6%
viability, T/C [20]: 13%
viability, T/C [33]: 12.6%
viability, T/C [34]: 13.4%
viability, T/C [21]: 11.3%
viability, T/C [22]: 13.4%
viability, T/C [23]: 13.9%
viability, T/C [24]: 11.3%
viability, T/C [35]: 14.2%
viability, T/C [36]: 17.4%

CCC(CC)c1cc(NC2CCC(N)C2)n2nccc2n1 (centres undefined) + CCn1c(-c2cc(N3CCN(C)CC3)cnc2C(C)OC)c2c3cc(ccc31)-c1csc(n1)CC(NC(=O)C1CC1C)C(=O)N1CCCC(N1)C(=O)OCC(C)(C)C2
pIC50 (second compound 0.000949 µM): > 7.50
pIC50 (second compound 0.003 µM): > 7.50
pIC50 (second compound 0.00949 µM): > 7.50
pIC50 (second compound 0.03 µM): > 7.50
pIC50 (second compound 0.0949 µM): > 7.50
pIC50 (second compound 0.3 µM): > 7.50
viability, T/C [1]: 36.1%
viability, T/C [2]: 34.6%
viability, T/C [3]: 36.9%
viability, T/C [4]: 38.4%
viability, T/C [25]: 15.5%
viability, T/C [26]: 51.6%
viability, T/C [5]: 22.1%
viability, T/C [6]: 24.1%
viability, T/C [7]: 24.7%
viability, T/C [8]: 27.2%
viability, T/C [27]: 15.2%
viability, T/C [28]: 50.2%
viability, T/C [9]: 23.4%
viability, T/C [10]: 24.7%
viability, T/C [11]: 23.6%
viability, T/C [12]: 25.8%
viability, T/C [29]: 17.8%
viability, T/C [30]: 46.1%
viability, T/C [13]: 20.7%
viability, T/C [14]: 20.4%
viability, T/C [15]: 24.9%
viability, T/C [16]: 27.7%
viability, T/C [31]: 17.4%
viability, T/C [32]: 57.6%
viability, T/C [17]: 21.6%
viability, T/C [18]: 22.1%
viability, T/C [19]: 26.9%
viability, T/C [20]: 32.8%
viability, T/C [33]: 18.4%
viability, T/C [34]: 49.6%
viability, T/C [21]: 22.4%
viability, T/C [22]: 22.3%
viability, T/C [23]: 25.7%
viability, T/C [24]: 32.3%
viability, T/C [35]: 22.3%
viability, T/C [36]: 51.4%

C#Cc1c(F)ccc2cc(O)cc(-c3ncc4c(N5CC6CCC(C5)N6)nc(OCC56CCCN5CC(F)C6)nc4c3F)c12 (centres undefined)
viability, T/C (compound 0.0316 µM): 98.7% [middle of 8 runs]
viability, T/C (compound 0.316 µM): 67.4% [middle of 8 runs]
viability, T/C (compound 1 µM): 51.8% [middle of 8 runs]
viability, T/C (compound 3.16 µM): 37.3% [middle of 8 runs]
viability, T/C (compound 10 µM): 26.2% [middle of 8 runs]
IC50 (compound alone, run of 06/10/2024): 1.11 µM [middle of 8 runs]

CC(Nc1ccc2c(c1)OCCn1cc(N3C(=O)OCC3C(F)F)nc1-2)C(N)=O (centres undefined)
viability, T/C (compound 0.0316 µM): 75.3% [middle of 4 runs]
viability, T/C (compound 0.1 µM): 53.4% [middle of 4 runs]
viability, T/C (compound 0.316 µM): 42.6% [middle of 4 runs]
viability, T/C (compound 1 µM): 39.3% [middle of 4 runs]
viability, T/C (compound 10 µM): 26.1% and 23.8% and 27% (2×)

CC1(O)CCCC1n1c(=O)c(C(F)F)cc2cnc(NC3CCN(S(C)(=O)=O)CC3)nc21 (centres undefined) + CCn1c(-c2cccnc2C(C)OC)c2c3cc(ccc31)N1CCOC(CC(NC(=O)C(C(C)C)N(C)C(=O)C3(F)CCN(C(=O)C#CC(C)(C)N(C)C)CC3)C(=O)N3CCCC(N3)C(=O)OCC(C)(C)C2)C1
pIC50 (second compound 0.000949 µM): > 7.50
pIC50 (second compound 0.003 µM): > 7.50
pIC50 (second compound 0.00949 µM): > 7.50
pIC50 (second compound 0.03 µM): > 7.50
pIC50 (second compound 0.0949 µM): > 7.50
pIC50 (second compound 0.3 µM): > 7.50
viability, T/C [1]: 28.6%
viability, T/C [2]: 30.5%
viability, T/C [3]: 29.6%
viability, T/C [4]: 31.9%
viability, T/C [25]: 40.8%
viability, T/C [26]: 38.2%
viability, T/C [5]: 24.8%
viability, T/C [6]: 34.6%
viability, T/C [7]: 24.7%
viability, T/C [8]: 27.1%
viability, T/C [27]: 29.8%
viability, T/C [28]: 38.2%
viability, T/C [9]: 25.3%
viability, T/C [10]: 24.8%
viability, T/C [11]: 25.2%
viability, T/C [12]: 26.8%
viability, T/C [29]: 34.3%
viability, T/C [30]: 45.2%
viability, T/C [13]: 22.9%
viability, T/C [14]: 20.5%
viability, T/C [15]: 23.5%
viability, T/C [16]: 23%
viability, T/C [31]: 29.7%
viability, T/C [32]: 45.4%
viability, T/C [17]: 21.1%
viability, T/C [18]: 20.5%
viability, T/C [19]: 22.4%
viability, T/C [20]: 22%
viability, T/C [33]: 29.9%
viability, T/C [34]: 43.5%
viability, T/C [21]: 15.5%
viability, T/C [22]: 19.8%
viability, T/C [23]: 19%
viability, T/C [24]: 20.5%
viability, T/C [35]: 24.9%
viability, T/C [36]: 47.3%
